Measurements as given in patent publication US8785452B2, “Anti-infective compounds” (priority 2008, dated 2014).
Read-outs that look alike come from different tables or passages of the source.

How the values were obtained:
Raw264.7 cells [1] = conditions: mouse, 5 days; for Primary QIM CellNb: 20 μM
[2] = system: M. tuberculosis H37Rv-GFP; test: microbe, parasite or virus in culture; format: cell-based, Mycobacterium tuberculosis; conditions: Mycobacterium tuberculosis, H37RV, Macrophage
Raw264.7 cells [3] = test: Cell number (CellNb) from image analysis of the phenotypic cell-based assay; conditions: for Primary QIM CellNb: primary screen, 20 μM
[4] = confirmation, 20 uM, read-out: QIM Confirm % Inhibition 20 uM
[5] = primary screen, 20 μM, read-out: Primary QIM % Inhibition

SMILES	Primary QIM CellNb (Raw264.7 cells [1])	inhibition at 20 µM [2, 4] [%]	inhibition at 20 µM [2, 5] [%]	QIM Confirm CellNb 20 uM (Raw264.7 cells [3]; confirmation)	Primary QIM CellNb (Raw264.7 cells [3])	QIM Confirm CellNb 0.2 uM (Raw264.7 cells [1])	QIM Confirm CellNb 20 uM (Raw264.7 cells [1])	QIM Confirm CellNb 2 uM (Raw264.7 cells [1])	QIM Confirm CellNb 2 uM (Raw264.7 cells [3]; confirmation)	QIM Confirm CellNb 0.2 uM (Raw264.7 cells [3]; confirmation, 0.2 uM)
O=C(N/N=C/c1ccccc1[N+](=O)[O-])c1ccncc1 [IPK 000 043 35]	94.4	101	104	461.5	245.5	–	–	–	–	–
CCOc1ccc(/C=N/NC(=O)c2ccncc2)cc1 [IPK 000 041 49]	102.3	94.5	83.8	–	336.5	–	–	–	–	–
C=CCn1c(Cc2ccccc2)nc2c(cnn2-c2ccccc2)c1=O [IPK 000 073 11]	−10.5	56.1	49.1	–	147.8	67.2	–	–	–	–
Cc1sc(/N=C/c2ccc([N+](=O)[O-])s2)c(C(N)=O)c1C [IPK 000 110 17]	12.9	71.6	55.6	–	155.5	–	–	–	–	–
O=C(NC1CCCCC1)c1ccc(COc2cc(Cl)ccc2Cl)o1 [IPK 000 123 90]	26.7	87.7	73.1	–	205.0	–	–	–	–	–
Cc1ccc(NC(=O)c2c(NC(=O)c3ccccc3Cl)sc3c2CCC3)cc1 [IPK 000 073 69]	14.0	32.3	87	–	246.5	–	–	–	–	–
CCOc1ccc(NC(=S)Nc2ccccc2)cc1 [IPK 000 108 78]	38.3	68.8	78.8	–	200.3	–	–	–	–	–
O=C(N/N=C\c1cc2c(s1)CCCCC2)c1ccncc1 [IPK 000 102 07]	99.5	84.7	94.7	124.8	116.0	–	79.6	–	–	–
O=C(N/N=C/c1cccs1)c1ccncc1 [IPK 000 043 33]	94.5	104	83	–	270.8	–	–	–	–	–
O=C(N/N=C/c1cccc(Cl)c1Cl)c1ccncc1 [IPK 000 043 10]	92.7	98.3	14.3	–	176.8	–	–	–	–	–
CCCC(=O)/N=C(\N)Nc1nc2ccccc2o1 [IPK 000 122 62]	26.2	65.1	62.8	–	131.5	–	–	–	–	–
CC(NC(=O)c1ccc(C(C)(C)C)cc1)c1ccccc1 (stereo not shown) [IPK 000 067 61]	28.2	68.5	84.3	–	182.0	–	–	–	–	–
O=[N+]([O-])c1cc(/C=N/c2ccc(S(=O)(=O)NC3NC=CS3)cc2)c2c(c1)COCO2 (stereo not shown) [IPK 000 057 92]	23.0	27.2	-30.7	–	165.3	–	–	–	–	–
c1cc2c(cc1C13CC4CC(CC(C4)C1)C3)c1c3n2CCNC3CCC1 (stereo not shown) [IPK 000 068 87]	−12.0	71.4	73.1	–	156.8	–	–	–	–	–
COc1cccc(C2Nc3ccc(C(=O)O)cc3C3C=CCC32)c1 (stereo not shown) [IPK 000 112 80]	10.7	55.6	41.1	–	152.0	–	–	98.3	189.0	–
Oc1ccccc1/N=C/c1cc(Cl)cc(Cl)c1O [IPK 000 045 01]	24.3	30.6	-9.3	–	145.0	–	–	–	–	–
NNC(=O)c1ccc(COc2ccc3c(c2)CCC3)o1 [IPK 000 123 30]	72.5	64.1	77.2	–	296.8	–	–	–	–	–
CCc1ccc(/C=C(/C#N)C(=O)OC(C)C)s1 [IPK 000 107 90]	52.8	89.6	79.3	–	494.3	–	–	–	–	–
O=C(Nc1sc2c(c1C(=O)Nc1ccccc1)CCC2)c1ccccc1Br [IPK 000 073 29]	55.1	86.6	78.6	–	230.5	–	–	–	–	–
CCCCc1ccc(C(=O)Nc2ccc(Br)cn2)cc1 [IPK 000 105 47]	68.1	50.7	60.1	–	125.8	–	–	–	–	–
Cc1cccc(/C=N/NC(=O)c2ccncc2)c1 [IPK 000 043 26]	102.2	102	109	430.3	347.3	98.6	72.4	99.5	523.3	413.6
C/C(=N\NC(=O)c1cccc(F)c1)c1ccc2ccccc2c1 [IPK 000 104 07]	65.1	80.2	82.3	–	243.5	–	–	–	–	–

SMILES	Primary QIM CellNb (Raw264.7 cells [1])	inhibition at 20 µM [2, 4] [%]	inhibition at 20 µM [2, 5] [%]	QIM Confirm CellNb 20 uM (Raw264.7 cells [3]; confirmation)	Primary QIM CellNb (Raw264.7 cells [3])	QIM Confirm CellNb 0.2 uM (Raw264.7 cells [1])	QIM Confirm CellNb 20 uM (Raw264.7 cells [1])	QIM Confirm CellNb 2 uM (Raw264.7 cells [1])	QIM Confirm CellNb 2 uM (Raw264.7 cells [3]; confirmation)	QIM Confirm CellNb 0.2 uM (Raw264.7 cells [3]; confirmation, 0.2 uM)
O=[N+]([O-])c1ccc(O)c(/C=N/c2ccccc2O)c1 [IPK 000 044 20]	6.3	30.7	-67.5	–	135.0	–	–	–	–	–
CCOC(=O)CSc1nc(N)c(C(=O)Nc2ccc(N(C)C)cc2)s1 [IPK 000 105 70]	4.7	84.6	61.2	–	315.5	–	–	–	–	–
Cn1cc(/C=N/NC(=O)c2cccc(F)c2)c2ccccc21 [IPK 000 104 11]	19.9	83.3	89.7	–	203.8	–	–	–	–	–
O=C(N/N=C1\C(=O)N(Cc2cccc3ccccc23)c2ccccc21)c1cc(-c2ccccc2)n[nH]1 [IPK 000 103 78]	3.5	98	94.6	–	263.5	–	–	–	–	–
COc1c(O)cc(/C=N/NC(=O)c2ccncc2)cc1Br [IPK 000 078 30]	97.0	105	108	–	388.3	–	–	–	–	–
COc1cccc(/C=N/NC(=O)c2ccncc2)c1O [IPK 000 043 08]	102.7	95.1	87.3	–	255.5	–	–	–	–	–
NNC(=O)c1ccc(COc2cc(Cl)ccc2Cl)o1 [IPK 000 123 02]	45.3	78.2	76.8	–	411.8	–	–	–	–	–
O=[N+]([O-])c1cc2c(cc1/C=N/c1ccc(S(=O)(=O)Nc3nccs3)cc1)OCO2 [IPK 000 057 78]	12.6	35.5	-10.9	–	177.0	–	–	–	–	–
CCOc1nnc(NS(=O)(=O)c2ccc(/N=C/c3ccccc3O)cc2)s1 [IPK 000 080 01]	27.4	56.6	14.3	–	409.8	–	–	–	–	–
O=C(N/N=C/c1ccc(Cl)cc1)c1ccncc1 [IPK 000 041 53]	98.1	97	100	–	426.8	–	–	–	–	–
CN(C)c1ccc(/C=N/NC(=O)c2ccncc2)cc1 [IPK 000 042 96]	101.1	105	84.3	–	216.3	–	–	–	–	–
O=C(N/N=C/C=C/c1ccc([N+](=O)[O-])cc1)c1ccncc1 [IPK 000 043 30]	100.8	102	107	–	305.0	–	–	–	–	–
O=C(N/N=C/c1ccc([N+](=O)[O-])cc1)c1ccncc1 [IPK 000 041 48]	97.5	88.4	84.5	–	315.3	–	–	–	–	–
Nc1nonc1NC(=O)CSc1cccc2ccccc12 [IPK 000 106 30]	28.5	67.2	65.7	–	146.5	–	–	–	–	–
O=[N+]([O-])c1ccc(O)c(C2NN=C(c3ccccc3)S2)c1 (stereo not shown) [IPK 000 114 01]	7.3	-1.5	3.2	–	163.5	–	–	–	–	–
COc1cc(Cl)cc(/C=N/NC(=O)c2ccccc2O)c1O [IPK 000 104 20]	−2.9	34.6	65.2	–	29.5	–	–	–	–	–
O=S(=O)(Nc1nccs1)c1ccc(/N=C/c2ccccc2O)cc1 [IPK 000 079 88]	7.5	28.1	-69.2	–	181.8	–	–	–	–	–
COc1ccccc1/C=N/NC(=O)c1ccncc1 [IPK 000 043 01]	103.6	103	86.6	–	287.8	–	–	–	–	–
N=C1S/C(=C/c2ccc([N+](=O)[O-])cc2)C(=O)N1c1nccs1 [IPK 000 094 38]	13.6	6	46	–	126.3	–	–	–	–	–
O=C(N/N=C/c1cc([N+](=O)[O-])ccc1O)c1ccncc1 [IPK 000 042 98]	95.3	105	102	–	350.0	–	–	–	–	–
COc1ccc(OC)c(/C=N/NC(=O)c2ccncc2)c1 [IPK 000 042 93]	105.1	106	109	–	321.8	–	–	–	–	–
